One series can be described thus: in vivo. The arrangement: species or system nude mice (BALB/c nu/nu). As to conditions: mouse, in vivo; intravenous, continuous 5 days, nude mice; maximum dose at which no animal was dead within 2 weeks; read-out: Maximum tolerated dose. Here is the method:
(1) Measurement of maximum tolerated dose (MTD) of the spicamycin derivatives in nude mice
The spicamycin derivative was dissolved in dimethylsulfoxide (DMSO) and Cremophor EL® at the same volume as DMSO was added. Physiological saline was added so that the concentration of DMSO and Cremophor EL® was finally adjusted to 1%, respectively, and thus injection liquids of spicamycin derivative in a variety of concentrations were prepared. […] The maximum dose at which no animal was dead was defined as the MTD of the respective derivatives.

Series [1] relates to human colon cancer (COL-1). It is filed as in vivo, mouse. As to conditions: for TGIR (tumor growth inhibition rate, maximum) / minTx (relative tumor volume when reduced to the minimum): COL-1 s.c. in nude mice, at MTD; for TGIR (tumor growth inhibition rate, maximum): TGIR=(1-Tx/Cx)×100, maximum during about 3 weeks; for minTx (relative tumor volume when reduced to the minimum): minimum throughout the test period. Here is the method:
(2) Method for measuring the antitumor effect on human colon cancer (COL-1)
COL-1, a human colon cancer, was transplanted subcutaneously into nude mice. When the tumor had grown to a volume of about 100 mm^3, the nude mice were divided into groups of 5 animals so that the average tumor volumes of respective groups were equalized. The respective spicamycin derivatives were administered to test groups at their MTDs, while physiological saline (solvent) containing 1% DMSO and 1% Cremophor EL® was administered to the control group. […] RV is expressed as RV =Vn/Vo where Vn is the tumor volume on day n and Vo is the initial tumor volume at the time treatment was commenced.

[2] abbreviates: /minimum effective dose (effective: TGIR≥50).

Like-named read-outs stand apart in the source and are kept apart here.

As for `C=CCCCCCCCCCC(=O)NCC(=O)N[C@@H]1[C@@H](O)[C@@H](O)[C@@H](Nc2ncnc3[nH]cnc23)O[C@H]1C(O)CO` (stereo partly shown) [SPK44, 6-[4 '-N-(N'-11-dodecenoylglycyl)spicaminyl-amino]purine], the MTD at 336 h in the series “in vivo” came to 4 mg/kg/day. In series [1] (setting [2]), the Therapeutic index stood at 4. In series [1], the “TGIR (tumor growth inhibition rate, maximum)” value was 94 and the “minTx (relative tumor volume when reduced to the minimum)” value came out at 0.16.

With `CCCCCCCC/C=C/C=C/C(=O)NCC(=O)N[C@@H]1[C@@H](O)[C@@H](O)[C@@H](Nc2ncnc3[nH]cnc23)O[C@H]1C(O)CO` (stereo partly drawn) [SPK281, 6-[4'-N-(N'-trans,trans-2,4-tridecadienoylglycyl)spicaminyl-amino]purine], the MTD at 336 h in “in vivo” was determined as 18 mg/kg/day. For the same compound, in series [1], the “TGIR (tumor growth inhibition rate, maximum)” value amounted to 99 and the “minTx (relative tumor volume when reduced to the minimum)” value came to 0.06. The same compound returned a Therapeutic index in series [1] (mouse, in vivo) of 8.

For `CCCCCCCCC/C=C/C(=O)NCC(=O)N[C@@H]1[C@@H](O)[C@@H](O)[C@@H](Nc2ncnc3[nH]cnc23)O[C@H]1C(O)CO` (stereo partly drawn) [SPK86, 6-[4'-N-(N'-trans-2-dodecenoylglycyl)spicaminyl-amino]purine], the MTD at 336 h in the series “in vivo” was 18 mg/kg/day. For the same compound, the “TGIR (tumor growth inhibition rate, maximum)” value in series [1] came to 86.

With `O=C(CCCCCCCCCCCCBr)NCC(=O)N[C@@H]1[C@@H](O)[C@@H](O)[C@@H](Nc2ncnc3[nH]cnc23)O[C@H]1C(O)CO` (stereo partly shown) [SPK276, 6-[4'-N-(N'-13-bromotridecanoylglycyl)spicaminyl-amino]purine], the MTD at 336 h in “in vivo” came to 12 mg/kg/day. In series [1], the “TGIR (tumor growth inhibition rate, maximum)” value is on record as 96 and the “minTx (relative tumor volume when reduced to the minimum)” value was 0.16. Moreover, the Therapeutic index in series [1] (mouse, in vivo) is 8.

On to `CCCCCCCCCCCCCC(=O)NCC(=O)N[C@@H]1[C@@H](O)[C@@H](O)[C@@H](Nc2ncnc3[nH]cnc23)O[C@H]1C(O)CO` (stereo partly shown) [SPM10, 6-[4 ,-N-(N'-tetradecanoylglycyl)spicaminyl-amino]purine], for which the MTD at 336 h in “in vivo” was found to be 2.6 mg/kg/day. The compound also yielded a Therapeutic index in series [1] (setting [2]) of 4. For the same compound, in series [1], the “TGIR (tumor growth inhibition rate, maximum)” value was 98 and the “minTx (relative tumor volume when reduced to the minimum)” value was determined as 0.10.

Take `O=C(CCCCCCCCCCOc1ccccc1)NCC(=O)NC1C(O)C(O)C(Nc2ncnc3[nH]cnc23)OC1C(O)CO` (stereo not shown) [SPK422, 6-[4'-N-(N'-11-phenoxyundecanoylglycyl)-spicaminyl-amino]purine]: the MTD at 336 h in the series “in vivo” is 3.4 mg/kg/day. The “TGIR (tumor growth inhibition rate, maximum)” value in series [1] came to 95. Besides, the Therapeutic index in series [1] (mouse, in vivo) is 4.

With `O=C(CCCCCCCCC#Cc1ccsc1)NCC(=O)NC1C(O)C(O)C(Nc2ncnc3[nH]cnc23)OC1C(O)CO` (stereo not shown) [SPK263, 6-{4,-N-[N'-11-(3'-thienyl)-10-undecynoylglycyl]spicaminyl-amino}purine], the MTD at 336 h in “in vivo” is 12 mg/kg/day. Moreover, in series [1], the “TGIR (tumor growth inhibition rate, maximum)” value worked out at 97 and the “minTx (relative tumor volume when reduced to the minimum)” value came to 0.09. This compound also had a Therapeutic index in series [1] (mouse, in vivo) of 8.

As for `O=C(CCCCCCCCCCCCCBr)NCC(=O)N[C@@H]1[C@@H](O)[C@@H](O)[C@@H](Nc2ncnc3[nH]cnc23)O[C@H]1C(O)CO` (stereo partly shown) [SPK273, 6-[4'-N-(N'-14-bromotetradecanoylglycyl)spicaminyl-amino]purine], the MTD at 336 h in “in vivo” stood at 12 mg/kg/day. In series [1], the “TGIR (tumor growth inhibition rate, maximum)” value is given as 98 and the “minTx (relative tumor volume when reduced to the minimum)” value was found to be 0.11. The compound also gave a Therapeutic index in series [1] (mouse, in vivo) of 8.

As to `O=C(CCCCCCCCCCCBr)NCC(=O)N[C@@H]1[C@@H](O)[C@@H](O)[C@@H](Nc2ncnc3[nH]cnc23)O[C@H]1C(O)CO` (stereo partly shown) [SPK152, 6-[4'-N-(N'-12-bromododecanoylglycyl)spicaminyl-amino]purine], the MTD at 336 h in the series “in vivo” came to 36 mg/kg/day. In series [1], the “TGIR (tumor growth inhibition rate, maximum)” value was determined as 100 and the “minTx (relative tumor volume when reduced to the minimum)” value is 0.03. In series [1] (mouse, in vivo), this compound displayed a Therapeutic index of 8.

On to `CC(C)CCCCCCCCC(=O)NCC(=O)N[C@@H]1[C@@H](O)[C@@H](O)[C@@H](Nc2ncnc3[nH]cnc23)O[C@H]1C(O)CO` (stereo partly shown) [SPK9, 6-[4'-N-(N'-10-methylundecanoylglycyl)spicaminyl-amino]purine], for which, in the series “in vivo”, the MTD at 336 h is 6 mg/kg/day. In series [1], the “TGIR (tumor growth inhibition rate, maximum)” value was 99 and the “minTx (relative tumor volume when reduced to the minimum)” value is 0.05. In addition, in series [1] (mouse, in vivo), the Therapeutic index came to 4.

As for `CCCCCCCCCCCCC/C=C/C(=O)NCC(=O)N[C@@H]1[C@@H](O)[C@@H](O)[C@@H](Nc2ncnc3[nH]cnc23)O[C@H]1C(O)CO` (stereo partly drawn) [SPK188, 6-[4'-N-(N'-trans-2-hexadecenoylglycyl)spicaminyl-amino]purine], the MTD at 336 h in “in vivo” turned out to be 0.6 mg/kg/day. Also, the “TGIR (tumor growth inhibition rate, maximum)” value in series [1] is on record as 92.

As for `CCCCCCCCCCCCCC(O)CC(=O)NCC(=O)NC1C(O)C(O)C(Nc2ncnc3[nH]cnc23)OC1C(O)CO` (stereo not shown) [SPK115, 6-[4'-N-(N'-3-hydroxyhexadecanoylglycyl)-spicaminyl-amino]purine], the MTD at 336 h in the series “in vivo” was 3 mg/kg/day. In series [1] (setting [2]), this compound had a Therapeutic index of 4. Further, in series [1], the “TGIR (tumor growth inhibition rate, maximum)” value turned out to be 99 and the “minTx (relative tumor volume when reduced to the minimum)” value is 0.08.

In the case of `CCCCCCCCCCCCCC(CC(=O)NCC(=O)NC1C(O)C(O)C(Nc2ncnc3[nH]cnc23)OC1C(O)CO)OC(C)=O` (stereo not shown) [SPK189, 6-[4'-N-(N'-3-acetoxyhexadecanoylglycyl)-spicaminyl-amino]purine], in the series “in vivo”, the MTD at 336 h worked out at 6 mg/kg/day. Also, in series [1], the “TGIR (tumor growth inhibition rate, maximum)” value is 98 and the “minTx (relative tumor volume when reduced to the minimum)” value was 0.09. Further, the Therapeutic index in series [1] (mouse, in vivo) was found to be 4.

As to `O=C(CCCCCCCCCCCCCCCF)NCC(=O)NC1C(O)C(O)C(Nc2ncnc3[nH]cnc23)OC1C(O)CO` (stereo not shown) [SPK157, 6-[4,-N-(N'-16-fluorohexadecanoylglycyl)spicaminyl-amino]purine], the MTD at 336 h in the series “in vivo” was 1.6 mg/kg/day. This compound also displayed a Therapeutic index in series [1] (setting [2]) of 4. Moreover, in series [1], the “TGIR (tumor growth inhibition rate, maximum)” value was 98 and the “minTx (relative tumor volume when reduced to the minimum)” value turned out to be 0.11.

Take `CCCCCCCCCCCCCC[C@@H](OC(C)=O)C(=O)NCC(=O)NC1C(O)C(O)C(Nc2ncnc3[nH]cnc23)OC1C(O)CO` (stereo partly drawn) [SPK198, 6-[4'-N-(N'-(R) -2-acetoxyhexadecanoylglycyl)-spicaminyl-amino]purine]: the MTD at 336 h in “in vivo” was 1.5 mg/kg/day. The “TGIR (tumor growth inhibition rate, maximum)” value in series [1] was determined as 82.

For `C=CCCCCCCCCCCC(=O)NCC(=O)N[C@@H]1[C@@H](O)[C@@H](O)[C@@H](Nc2ncnc3[nH]cnc23)O[C@H]1C(O)CO` (stereo partly shown) [SPK142, 6-[4'-N-(N'-12-tridecenoylglycyl)spicaminyl-amino]purine], the MTD at 336 h in the series “in vivo” came out at 6 mg/kg/day. Moreover, in series [1], the “TGIR (tumor growth inhibition rate, maximum)” value is 99 and the “minTx (relative tumor volume when reduced to the minimum)” value came out at 0.09. For the same compound, in series [1] (mouse, in vivo), the Therapeutic index was 4.

Regarding `O=C(CCCCCCCCCCCOc1ccccc1)NCC(=O)NC1C(O)C(O)C(Nc2ncnc3[nH]cnc23)OC1C(O)CO` (stereo not shown) [SPK249, 6-[4'-N-(N'-12-phenoxydodecanoylglycyl)-spicaminyl-amino]purine], in “in vivo”, the MTD at 336 h was 3 mg/kg/day. In series [1], the “TGIR (tumor growth inhibition rate, maximum)” value amounted to 88 and the “minTx (relative tumor volume when reduced to the minimum)” value stood at 0.26. The Therapeutic index in series [1] (mouse, in vivo) is 4.

As to `CCCCCCCCCCCCC(F)(F)C(=O)NCC(=O)NC1C(O)C(O)C(Nc2ncnc3[nH]cnc23)OC1C(O)CO` (stereo not shown) [SPK182, 6-[4,-N-(N'-2,2-difluorotetradecanoylglycyl)spicaminyl-amino]purine], in the series “in vivo”, the MTD at 336 h stood at 36 mg/kg/day. Besides, in series [1], the “TGIR (tumor growth inhibition rate, maximum)” value turned out to be 90 and the “minTx (relative tumor volume when reduced to the minimum)” value was determined as 0.24. In addition, the Therapeutic index in series [1] (mouse, in vivo) worked out at 8.

As to `CCCCCCCCCCC/C=C/C(=O)NCC(=O)N[C@@H]1[C@@H](O)[C@@H](O)[C@@H](Nc2ncnc3[nH]cnc23)O[C@H]1C(O)CO` (stereo partly drawn) [SPK156, 6-[4'-N-(N'-trans-2-tetradecenoylglycyl)spicaminyl-amino]purine], the MTD at 336 h in “in vivo” is 3 mg/kg/day. In series [1], the “TGIR (tumor growth inhibition rate, maximum)” value is given as 92. Moreover, the Therapeutic index in series [1] (mouse, in vivo) amounted to 4.

`CCCCCCCCC/C=C/C=C/C(=O)NCC(=O)NC1C(O)C(O)C(Nc2ncnc3[nH]cnc23)OC1C(O)CO` (stereo not drawn) [SPT241, 6-[4 -N-(N'-trans,trans-2,4-tetradecadienylglycyl)-septaminyl-amino]purine]: in the series “in vivo”, the MTD at 336 h is 3 mg/kg/day. Besides, in series [1], the “TGIR (tumor growth inhibition rate, maximum)” value is 93 and the “minTx (relative tumor volume when reduced to the minimum)” value was determined as 0.24. The Therapeutic index in series [1] (mouse, in vivo) turned out to be 8.

Turning to `CCCC/C=C\CCCCCCCC(=O)NCC(=O)N[C@@H]1[C@@H](O)[C@@H](O)[C@@H](Nc2ncnc3[nH]cnc23)O[C@H]1C(O)CO` (stereo partly drawn) [SPK231, 6-[4,-N-(N'-cis-9-tetradecenoylglycyl)spicaminyl-amino]purine], in “in vivo”, the MTD at 336 h turned out to be 6 mg/kg/day. Moreover, in series [1], the “TGIR (tumor growth inhibition rate, maximum)” value is listed as 96 and the “minTx (relative tumor volume when reduced to the minimum)” value worked out at 0.12. Besides, the Therapeutic index in series [1] (mouse, in vivo) was 6.

In the case of `CCCCCCCCCCCCCCC(Cl)C(=O)NCC(=O)NC1C(O)C(O)C(Nc2ncnc3[nH]cnc23)OC1C(O)CO` (stereo not shown) [SPK135, 6-[4'-N-(N'-2-chlorohexadecanoylglycyl)spicaminylamino]purine], the MTD at 336 h in the series “in vivo” was determined as 24 mg/kg/day. Moreover, in series [1], the “TGIR (tumor growth inhibition rate, maximum)” value worked out at 93. Besides, the Therapeutic index in series [1] (mouse, in vivo) came out at 4.

Values taken from patent US5461036A, “Spicamycin derivatives and their use as anticancer agents” (priority 1991, dated 1995).
